Experimental findings from PubChem BioAssay AID288 (DTP/NCI, 2004) are described below.

Values joined by “and” are separate entries in the source; they are usually repeats but may differ in a detail not shown here. Identical values can stand only once. Records with an inconclusive call do not appear. Numbered stars: 1 amine (or outer) side, 2 acyl side, 3 side chain; on linkers, the order of the positions; unused ones are H or OH. Bridge positions count the residues as written; N and C are the ends. Square brackets hold non-standard residues; d marks the D form. Peptide text beside a SMILES is read from it. I, II: the chains in the order shown. * marks the point of attachment. ξ: configuration not given here. Quinaldoyl(3-OH,6-OMe) = COc1ccc2nc(C(=O)*)c(O)cc2c1; X2 = CC(=O)OC1CC=NN([*:1])C1C(=O)[*:2]; ξNMeVal(3-OH) = CNC(C(=O)O)C(C)(C)O; X3 = O=C(C1CCCNN1[*:1])[*:2]; Sar = CNCC(=O)O

In this assay the test system is BDF1 mice, M5076 sarcoma s.c., survival/tumor T/C. Briefly: NCI In Vivo Anticancer Drug Screen. Data for tumor model Sarcoma M5076 (subcutaneous) in B6D2F1 (BDF1) mice. The method, then:
The antitumor activity of compounds was measured in mice bearing transplantable tumors. Survival or tumor size were measured and the results are expressed as the measurement made in the treated group (T) divided by the measurement made in the vehicle treated control group (C). The tumor model used in this assay is Sarcoma M5076 (subcutaneous) in B6D2F1 (BDF1) mice

For the compound `O=C1C=CN(C2OC(CO)C(O)C2O)C(=O)C1` (configuration not stated), the T/C was 42 % of control and 46 % of control (endpoint: mean tumor weight, dose: 150.0 mg/kg/injection, schedule: Q02DX011 (ip), vehicle: saline, higher = larger tumour); 44 % of control and 51 % of control (endpoint: mean tumor weight, dose: 300.0 mg/kg/injection, schedule: Q02DX011 (ip), vehicle: saline, higher = larger tumour); 78 % of control and 82 % of control (endpoint: median tumor weight (est.), dose: 75.0 mg/kg/injection, schedule: Q02DX011 (ip), vehicle: saline, higher = larger tumour); 43 % of control and 48 % of control (endpoint: median tumor weight (est.), dose: 150.0 mg/kg/injection, schedule: Q02DX011 (ip), vehicle: saline, higher = larger tumour); 38 % of control and 46 % of control (endpoint: median tumor weight (est.), dose: 300.0 mg/kg/injection, schedule: Q02DX011 (ip), vehicle: saline, higher = larger tumour).
Turning to `COc1ccc2nc(C(=O)NC3COC(=O)C(C(C)(C)O)N(C)C(=O)CN(C)C(=O)CNC(=O)C4CCCNN4C(=O)C(NC(=O)c4nc5ccc(OC)cc5cc4O)COC(=O)C(C(C)(C)O)N(C)C(=O)CN(C)C(=O)CNC(=O)C4C(OC(C)=O)CC=NN4C3=O)c(O)cc2c1` (configuration not stated) (I: {Quinaldoyl(3-OH,6-OMe)}-S[X2]G[Sar][ξNMeVal(3-OH)] / II: {Quinaldoyl(3-OH,6-OMe)}-S[X3]G[Sar][ξNMeVal(3-OH)]; ester I:1-II:C, I:C-II:1; configuration not given here), the T/C was 97 % of control (endpoint: median survival time, dose: 5.0 micrograms/kg/injection, schedule: Q01DX009 (ip), vehicle: Klucel (hydroxypropylcellulose) (HPC), higher = longer survival); 86 % of control (endpoint: median survival time, dose: 10.0 micrograms/kg/injection, schedule: Q01DX009 (ip), vehicle: Klucel (hydroxypropylcellulose) (HPC), higher = longer survival); 95 % of control (endpoint: median survival time, dose: 20.0 micrograms/kg/injection, schedule: Q01DX009 (ip), vehicle: Klucel (hydroxypropylcellulose) (HPC), higher = longer survival); 94 % of control (endpoint: median survival time, dose: 40.0 micrograms/kg/injection, schedule: Q01DX009 (ip), vehicle: Klucel (hydroxypropylcellulose) (HPC), higher = longer survival); 90 % of control (endpoint: median tumor weight (est.), dose: 5.0 micrograms/kg/injection, schedule: Q01DX009 (ip), vehicle: DMSO, higher = larger tumour); 107 % of control (endpoint: median tumor weight (est.), dose: 10.0 micrograms/kg/injection, schedule: Q01DX009 (ip), vehicle: DMSO, higher = larger tumour). Further, the T/C (endpoint: median tumor weight (est.), dose: 20.0 micrograms/kg/injection, schedule: Q01DX009 (ip), vehicle: DMSO, higher = larger tumour) is 117 % of control.
